Reference: patent US20070254891A1, “Crystalline forms of 4-(2-fluorophenyl)-6-methyl-2-(piperazin-1-yl)thieno[2,3-d]pyrimidine” (Dynogen Pharmaceuticals, Inc., priority 2006, published 2007)

Experiment: Accelerated light stability study (Atlas Suntest CPS+ light box)
Format: physicochemical
Description: Purity analysis was performed on an Agilent HP1100 system equipped with a diode array detector and using Chemstation V9 software. Gradient, Reverse Phase methods (duration approximately 40 minutes) were used in a HPLC1 system. A Thermo-Electron Corporation HyPurity C18 5 um 150×4.6 mm column was used at 25° C. Test samples were made-up of 0.2 mg/ml of the compound in acetonitrile:water (1:1 v/v). 10 μl of sample was injected into the column. The flow rate through the column was 1 ml/min and the detection wavelength, bandwidth was 254,8 nm. Phase A was 0.1% phosphoric acid in water and Phase B was 0.1% phosphoric acid in acetonitrile. The mobile phase timetable is shown below in Table 2.
Accelerated Light stability experiments were conducted using an Atlas Suntest CPS+light box. The light exposure was set to 550 W/m^2 and the run time was set to 168 hours (1 week). The chamber temperature and black standard temperature (which indicates how hot the test samples will become) were set to 25° C. The actual temperature in the sample chamber was 40° C.
Form I and II were assessed using an Atlas Suntest CPS+ light box to determine the effect of their exposure to light over a period of 168 hours (1 week). The light exposure was set to 550 W/M^2. Samples were weighed into either open weighing boats covered by pyrex glass beakers, glass vials with open tops (no lid), or glass vials covered in Aluminum foil. In all instances, the material was spread out into an even, thin layer.

Cc1cc2c(-c3ccccc3F)nc(N3CCNCC3)nc2s1.Cl [Form II, 4-(2-fluorophenyl)-6-methyl-2-(piperazin-1-yl)thieno[2,3-d]pyrimidine hydrochloride]
Rate of degradation relative to Form I (1 week at elevated light levels): about half the rate of Form I | Purity after 1 week light exposure (20 ml glass vial covered in Al foil with loose lid (control)): 99.9 | Purity after 1 week light exposure (20 ml glass vial, 550 W/m^2, 168 hours, hydrochloride): 90.7 | HPLC purity after accelerated light study (one week, FIGS. 6A/6B (open weighing boats), hydrochloride): 88.3% | Purity after 1 week light exposure (open weighing boat, 550 W/m^2, 168 hours, hydrochloride): 88.3
